Experimental data taken from patent US6989397B1, “Iron chelators and uses thereof” (University of Queensland, priority 1999, dated 2006).
Several values for one entry are separate records, joined by “and”; a condition that tells them apart may be missing. Equal values may be shown once.

Assays:
SK-Mel-28 melanoma cells = assay: 59Fe release from prelabelled cells (iron efflux); assay type: cell-based, human; details: labelled 3 h with 59Fe-transferrin 0.75 μM, reincubated 3 h at 37° C., chelators 50 μM, DFO 100 μM, Mean±SD
Procedure: (§1) The effect of chelators on ^59Fe uptake from ^59Fe-Tf and ^59Fe release from prelabelled cells was studied using standard procedures reported previously (Richardson et al., 1994, J. Lab Clin. Med. 124 660–71). The amount of ^59Fe internalized by the cells was measured by incubation with the general protease pronase (1 mg/ml) for 30 min at 4° C. to remove membrane-bound ^59Fe and Tf (Richardson et al., 1990; Baker et al., 1998, Biochim. Biophys. Acta 1380 21–30).
Table 1. The effect of DFO, 311, PCTH, PCBH, or PCBHH on ^59Fe release from BE-2 neuroblastoma cells, SK-N-MC neuroepithelioma cells, and SK-Mel-28 melanoma cells. Cells were labeled for 3 h at 37° C. with ^59Fe-transferrin (0.75 μM), washed, and then reincubated with the chelators for 3 h at 37° C. […] Results are Mean±SD of three determinations in a typical experiment.

BE-2 neuroblastoma cells = assay: internalized 59Fe uptake from 59Fe-transferrin; assay type: cell-based; details: 59Fe-transferrin 0.75 μM, 3 h at 37° C., chelators 50 μM, DFO 100 μM, mean±SD
Procedure: as §1
Table 2. The effect of DFO, 311, PCTH, PCBH, or PCBHH on internalized ^59Fe uptake from ^59Fe-transferrin by BE-2 neuroblastoma cells, SK-N-MC neuroepithelioma cells, and SK-Mel-28 melanoma cells. Cells were incubated with the chelators and ^59Fe-transferrin (0.75 μM) for 3 h at 37° C., washed, and incubated for 30 min at 4° C. with pronase (1 mg/ml) to separate the internalized from the membrane-bound ^59Fe. All chelators were screened at a concentration of 50 μM except for DFO which was examined at 100 μM. Results are mean±SD (three determinations) from a typical experiment.

[1] = test system: SK-N-MC neuroepithelioma cells; assay: 3H-thymidine, 3H-leucine or 3H-uridine incorporation; assay type: cell-based, human; details: 20 hr with chelators 50 μM, DFO 100 μM, then label 2 h, Mean±SD
Procedure: Labelling of cells with ^3H-thymidine (20 Ci/mmol: Dupont NEN, MA, U.S.A.), ^3H-uridine (42.7 Ci/mmol/Dupont NEN, MA, U.S.A.) and ^3H-leucine (52 Ci/mmol: Dupont NEN) was estimated after precipitation with trichloroacetic acid (TCA). After a 20 hr incubation with the chelators, ^3H-leucine, ^3H-uridine or ^3H-thymidine (1 μCi/ml) were then added for 2 hrs at 37° C. Subsequently, petri dishes containing cell cultures were placed on ice and washed four times with ice-cold Hanks' balanced salt solution (BSS) and the cells detached from the plate using 1 mM EDTA in Ca/Mg-free saline. The cells were then pelleted by centrifugation, the supernatant removed and the pellet frozen at −70° C. After thawing the cells on ice, 1 ml of ice-cold 20% TCA was added and the solution then vortexed and kept on ice for 1 hr with periodic mixing. This solution was then centrifuged at 15,000 rpm for 15 mins at 4° C. and the supernatant removed. The pellet was then washed twice with 1 ml of ice-cold 10% TCA. The pellet was dissolved in 0.5 ml of 1 M NaOH and transferred to scintillation tubes with 3 ml of scintillant. Radioactivity was measured on a β-scintillation counter (LKB Wallace, Finland).
Table 3. The effect of the chelators on ^3H-thymidine, ^3H-leucine, or ^3H-uridine incorporation into SK-N-MC neuroepithelioma cells. Cells were incubated for 20 hr at 37° C. with either DFO (100 μM) or the other chelators (50 μM). Following this, either ^3H-thymidine, ^3H-leucine, or ^3H-uridine (1 μCi/mL) were added and the cells incubated for an additional 2 h at 37° C. (see Methods for details). Results are Mean±SD (4–5 determinations) from a typical experiment of 2–4 experiments performed.

GADD45 mRNA = assay: Northern blot analysis of mRNA levels; assay type: cell-based, human; details: SK-N-MC cells, 20 h; chelators 25 μM, DFO 100 μM
Procedure: (§2) FIG. 6. The effect of the chelators on mRNA levels of GADD45, WAF1 and β-actin in SK-N-MC neuroepithelioma cells. Total RNA was extracted from cells after a 20 h incubation with medium alone (control) or medium containing ferric ammonium citrate (100 μg/mL), DFO (100 μM), or the other chelators (25 μM). The isolated RNA was then electrophoresed on a 1.2% agarose-formaldehyde gel, transferred to a hybridisation membrane, and probed under high stringency conditions.
(§3) Northern blot analysis was performed by isolating total RNA using the Total RNA isolation Reagent from Advanced Biotechnologies Ltd (Surrey, United Kingdom). The RNA (15 μg) was heat denatured at 90° C. for 2 mins in RNA-loading buffer and then loaded onto a 1.2% agarose-formaldehyde gel. After electrophoresis, RNA was transferred to a nylon membrane (GeneScreen, New England Nuclear, Boston, USA) in 10×SSC using the capillary blotting method. The RNA was then cross-linked to the membrane using a UV-crosslinker (UV Stratalinker 1800, Stragene Ltd., USA).
(§4) The membranes were hybridized with probes specific for human WAF1, GADD-45 and β-actin. The WAF1 probe consisted of a 1 kb fragment from pSXV(ATTC: Cat. No. 79928). The GADD45 probe consisted of a 760 bp fragment from human GADD45 cDNA cloned into pHu145B2 (kindly supplied by Dr. Albert Fornace, National Cancer Institute, NIH, Maryland). The β-actin probe consisted of a 1.4 kb fragment from human β-actin cDNA cloned into pBluescript SK-(ATTC: at. No 37997).
(§5) Hybridization of probes to the membranes and their subsequent washing were performed as described by Mahmoudi and Lin, 1989, Biotechniques 7, 331–2 using a Hybaid Shake and Stack Hybridization oven (Hybaid Ltd., Middlesex, UK). The membranes were then exposed to Kodak XAR Films at −70° C. with an intensifying screen. The probes were stripped from the nylon membrane by boiling in a solution containing 10 mM Tris-HCl (pH 7.0). 1 mM EDTA (pH 8.0) and 1% SDS for 15–30 mins as described by the membrane manufacturer. Densitometric data were collected with a Laser Densitometer and analyzed by Kodak Biomax Software (Kodak Ltd, USA).

WAF1 mRNA = assay: Northern blot analysis of mRNA levels; assay type: cell-based, human; details: SK-N-MC cells, 20 h; chelators 25 μM, DFO 100 μM
Procedure: as §2, §3, §4, §5

Row | SMILES | % Cellular Iron Released (SK-Mel-28 melanoma cells) | Internalised Iron Uptake (% Control) (BE-2 neuroblastoma cells) | 3H-Leucine incorporation, % Control [1] | 3H-Thymidine incorporation, % Control [1] | 3H-Uridine incorporation, % Control [1] | level of GADD45 mRNA (FIG. 6) (GADD45 mRNA) | level of WAF1 mRNA (FIG. 6) (WAF1 mRNA)
1 | CC(=O)N(O)CCCCCNC(=O)CCC(=O)N(O)CCCCCNC(=O)CCC(=O)N(O)CCCCCN [DFO, desferrioxamine, reference compound] | 27 ± 1% | 42 % Control and 42 ± 3 % Control | 9 % Control and 9 ± 0.7 % Control | 29 ± 13 % Control | 34 % Control and 34 ± 5 % Control | – | –
2 | O=C(NN=Cc1ccccn1)c1cccs1 [PCTH, 2-pyridylcarboxaldehyde 2-thiophenecarboxyl hydrazone] | 57 ± 6% | 25 ± 3 % Control | 21 ± 6 % Control | 64 % Control and 64 ± 14 % Control | 43 ± 2 % Control | did not have any effect | did not have any effect
3 | O=C(NN=Cc1c(O)ccc2ccccc12)c1ccncc1 [Chelator 311, 2-hydroxy-1-naphthylaldehyde isonicotinoyl hydrazone, reference compound] | 70 ± 1% | 8 ± 1 % Control | 2 % Control and 2 ± 0.3 % Control | 0.1 % Control and 0.1 ± 0.1 % Control | 5 % Control and 5 ± 2 % Control | increase | increase
4 | O=C(NN=Cc1ccccn1)c1ccccc1 [PCBH, 2-pyridylcarboxaldehyde benzoyl hydrazone] | 54 ± 4% | 25 ± 4 % Control | 30 ± 13 % Control | 72 % Control and 72 ± 16 % Control | 31 ± 9 % Control | did not have any effect | did not have any effect
5 | O=C(NN=Cc1ccco1)c1ccncc1 [FIH, 2furoylcarboxaldehyde isonicotinoyl hydrazone] | – | – | 78 ± 5 % Control | 17 ± 4 % Control | 48 ± 10 % Control | – | –
